One may read the Ki as a measure of affinity in units of concentration, obtained from inhibition or displacement. Higher therefore signals a looser hold on the target.

The target in this assay is human capsaicin receptor (VR1) (Homo sapiens, UniProt Q8NER1). Put plainly: Capsaicin receptor binding assay ([3H]RTX competition, VR1-transfected HEK293 membranes).
human capsaicin receptor (VR1), sequence (Q8NER1 whole entry): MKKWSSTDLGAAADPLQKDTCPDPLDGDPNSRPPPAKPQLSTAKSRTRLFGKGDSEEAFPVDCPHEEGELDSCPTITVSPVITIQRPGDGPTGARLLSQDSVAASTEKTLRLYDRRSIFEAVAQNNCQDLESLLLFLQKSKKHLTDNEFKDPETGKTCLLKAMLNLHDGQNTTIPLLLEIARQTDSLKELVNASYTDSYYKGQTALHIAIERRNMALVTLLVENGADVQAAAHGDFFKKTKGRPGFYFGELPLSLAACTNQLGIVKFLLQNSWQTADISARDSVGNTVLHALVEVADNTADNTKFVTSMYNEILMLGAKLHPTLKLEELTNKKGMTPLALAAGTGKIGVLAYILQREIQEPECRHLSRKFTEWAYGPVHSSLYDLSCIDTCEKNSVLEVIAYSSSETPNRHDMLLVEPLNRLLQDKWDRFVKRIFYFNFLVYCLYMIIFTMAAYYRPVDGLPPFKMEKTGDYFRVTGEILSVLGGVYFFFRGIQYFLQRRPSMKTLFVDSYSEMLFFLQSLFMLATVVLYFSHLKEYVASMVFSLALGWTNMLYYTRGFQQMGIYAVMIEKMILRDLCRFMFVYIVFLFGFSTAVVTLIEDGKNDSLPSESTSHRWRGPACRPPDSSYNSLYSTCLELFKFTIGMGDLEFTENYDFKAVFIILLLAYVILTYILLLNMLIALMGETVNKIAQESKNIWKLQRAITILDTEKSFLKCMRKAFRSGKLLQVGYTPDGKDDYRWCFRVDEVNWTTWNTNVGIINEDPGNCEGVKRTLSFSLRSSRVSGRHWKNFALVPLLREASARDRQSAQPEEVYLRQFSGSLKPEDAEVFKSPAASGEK
Compound `FC(F)(F)c1ccc(Nc2nc(C3CCN(Cc4ccncc4)CC3)nc3cc(-c4ncccc4C(F)(F)F)ccc23)cc1` [Compound 691, [2-(1-Pyridin-4-ylmethyl-piperidin-4-yl)-7-(3-trifluoromethyl-pyridin-2-yl)-quinazolin-4-yl]-(4-trifluoromethyl-phenyl)-amine] yielded a Ki of under 1000 nM.
Then `Cn1ccnc1CN1CCC(c2nc(Nc3ccc(C(F)(F)F)cc3)c3ccc(-c4ncccc4C(F)(F)F)cc3n2)CC1` [Compound 692, [2-[1-(1-Methyl-1H-imidazol-2-ylmethyl)-piperidin-4-yl]-7-(3-trifluoromethyl-pyridin-2-yl)-quinazolin-4-yl]-(4-trifluoromethyl-phenyl)-amine], with under 1000 nM; and `CC(=O)N1CCC(c2nc(Nc3ccc(C(F)(F)F)cc3)c3ccc(-c4ncccc4C(F)(F)F)cc3n2)CC1` [Compound 693, 1-{4-[4-(4-Trifluoromethyl-phenylamino)-7-(3-trifluoromethyl-pyridin-2-yl)-quinazolin-2-yl]-piperidin-1-yl}-ethanone], with under 1000 nM.
The figure for `CCC(=O)N1CCC(c2nc(Nc3ccc(C(F)(F)F)cc3)c3ccc(-c4ncccc4C(F)(F)F)cc3n2)CC1` [Compound 694, 1-{4-[4-(4-Trifluoromethyl-phenylamino)-7-(3-trifluoromethyl-pyridin-2-yl)-quinazolin-2-yl]-piperidin-1-yl}-propan-1-one] is under 1000 nM; for `FC(F)(F)c1ccc(Nc2nc([C@@H]3CCCN3)nc3cc(-c4ncccc4C(F)(F)F)ccc23)cc1` [Compound 695, (S)-[2-Pyrrolidin-2-yl-7-(3-trifluoromethyl-pyridin-2-yl)-quinazolin-4-yl]-(4-trifluoromethyl-phenyl)-amine] it is under 1000 nM; for `CCCN1CCC[C@H]1c1nc(Nc2ccc(C(F)(F)F)cc2)c2ccc(-c3ncccc3C(F)(F)F)cc2n1` [Compound 696, (S)-[2-(1-Propyl-pyrrolidin-2-yl)-7-(3-trifluoromethyl-pyridin-2-yl)-quinazolin-4-yl]-(4-trifluoromethyl-phenyl)-amine] it is under 1000 nM.
Then `CC(C)(C)c1ccc(Nc2nc(CN3CCCS3(=O)=O)nc3cc(-c4ncccc4C(F)(F)F)ccc23)cc1` [Compound 697, (4-tert-Butyl-phenyl)-[2-(1,1-dioxo-1λ^6-isothiazolidin-2-ylmethyl)-7-(3-trifluoromethyl-pyridin-2-yl)-quinazolin-4-yl]-amine], with under 1000 nM; and `CC(=O)c1ccc(Nc2nc(CN3C[C@@H](C)O[C@@H](C)C3)nc3cc(-c4ncccc4C(F)(F)F)cnc23)cc1` [Compound 698, 1-{4-[2-(2,6-Dimethyl-morpholin-4-ylmethyl)-7-(3-trifluoromethyl-pyridin-2-yl)-pyrido[3,2-d]pyrimidin-4-ylamino]-phenyl}-ethanone (cis)], with under 1000 nM.
In turn, `FC(F)(F)c1ccc(Nc2nc(Cn3ccnc3)nc3cc(-c4ncccc4C(F)(F)F)cnc23)cc1` [Compound 699, [2-Imidazol-1-ylmethyl-7-(3-trifluoromethyl-pyridin-2-yl)-pyrido[3,2-d]pyrimidin-4-yl]-(4-trifluoromethyl-phenyl)-amine] gave a Ki of under 1000 nM.
The figure for `FC(F)(F)c1ccc(Nc2nc(Cn3ccnc3)nc3cc(-c4ncccc4Cl)cnc23)cc1` [Compound 700, [7-(3-Chloro-pyridin-2-yl)-2-imidazol-1-ylmethyl-pyrido[3,2-d]pyrimidin-4-yl]-(4-trifluoromethyl-phenyl)-amine] is under 1000 nM; for `C[C@@H]1CN(C(=O)c2nc(Nc3ccc(C(F)(F)F)cc3)c3ccc(-c4ncccc4C(F)(F)F)cc3n2)C[C@H](C)O1` [Compound 702, (2,6-Dimethyl-morpholin-4-yl)-[4-(4-trifluoromethyl-phenylamino)-7-(3-trifluoromethyl-pyridin-2-yl)-quinazolin-2-yl]-methanone (cis)] it is under 1000 nM; for `CS(=O)(=O)N1CCC(c2nc(Nc3ccc(C(F)(F)F)cc3)c3ccc(-c4ncccc4C(F)(F)F)cc3n2)CC1` [Compound 703, [2-(1-Methanesulfonyl-piperidin-4-yl)-7-(3-trifluoromethyl-pyridin-2-yl)-quinazolin-4-yl]-(4-trifluoromethyl-phenyl)-amine] it is under 1000 nM.
Turning to `CC(C)(CO)NCc1nc(Nc2ccc(C(F)(F)F)cc2)c2ccc(-c3ncccc3C(F)(F)F)cc2n1` [Compound 704, 2-Methyl-2-{[4-(4-trifluoromethyl-phenylamino)-7-(3-trifluoromethyl-pyridin-2-yl)-quinazolin-2-ylmethyl]-amino}-propan-1-ol], the inhibition constant Ki is under 1000 nM.
The figure for `CN1CCCN(Cc2nc(Nc3ccc(C(F)(F)F)cc3)c3ccc(-c4ncccc4C(F)(F)F)cc3n2)CC1` [Compound 705, [2-(4-Methyl-[1,4]diazepan-1-ylmethyl)-7-(3-trifluoromethyl-pyridin-2-yl)-quinazolin-4-yl]-(4-trifluoromethyl-phenyl)-amine] is under 1000 nM; for `CN(C)CCCN(C)Cc1nc(Nc2ccc(C(F)(F)F)cc2)c2ccc(-c3ncccc3C(F)(F)F)cc2n1` [Compound 706, N,N,N′-Trimethyl-N′-[4-(4-trifluoromethyl-phenylamino)-7-(3-trifluoromethyl-pyridin-2-yl)-quinazolin-2-ylmethyl]-propane-1,3-diamine] it is under 1000 nM.
For `CN(C)C(=O)c1nc(Nc2ccc(C(F)(F)F)cc2)c2ccc(-c3ncccc3C(F)(F)F)cc2n1` [Compound 707, 4-(4-Trifluoromethyl-phenylamino)-7-(3-trifluoromethyl-pyridin-2-yl)-quinazoline-2-carboxylic acid dimethylamide], the Ki is under 1000 nM.
As to `CNC(=O)c1nc(Nc2ccc(C(F)(F)F)cc2)c2ccc(-c3ncccc3C(F)(F)F)cc2n1` [Compound 708, 4-(4-Trifluoromethyl-phenylamino)-7-(3-trifluoromethyl-pyridin-2-yl)-quinazoline-2-carboxylic acid methylamide], the Ki was under 1000 nM.
The compound `O=C(NCCN1CCOCC1)c1nc(Nc2ccc(C(F)(F)F)cc2)c2ccc(-c3ncccc3C(F)(F)F)cc2n1` [Compound 709, 4-(4-Trifluoromethyl-phenylamino)-7-(3-trifluoromethyl-pyridin-2-yl)-quinazoline-2-carboxylic acid (2-morpholin-4-yl-ethyl)-amide] registered a Ki of under 1000 nM.
Then `C[C@@H]1CN(Cc2nc(Nc3ccc(C4CC4)cc3)c3ccc(-c4ncccc4C(F)(F)F)cc3n2)C[C@H](C)O1` [Compound 710, (4-Cyclopropyl-phenyl)-[2-(2,6-dimethyl-morpholin-4-ylmethyl)-7-(3-trifluoromethyl-pyridin-2-yl)-quinazolin-4-yl]-amine (cis)], with under 1000 nM; and `Cc1cccnc1-c1ccc2c(Nc3ccc(C(C)C)cc3)nc(CN(C)C)nc2c1` [Compound 711, [2-Dimethylaminomethyl-7-(3-methyl-pyridin-2-yl)-quinazolin-4-yl]-(4-isopropyl-phenyl)-amine], with under 1000 nM; and `Cc1cccnc1-c1ccc2c(Nc3ccc(C(C)C)cc3)nc(CN3CCOCC3)nc2c1` [Compound 712, (4-Isopropyl-phenyl)-[7-(3-methyl-pyridin-2-yl)-2-morpholin-4-ylmethyl-quinazolin-4-yl]-amine], with under 1000 nM.
As for `Cc1cccnc1-c1ccc2c(Nc3ccc(C(C)C)cc3)nc(CN3CCSCC3)nc2c1` [Compound 713, (4-Isopropyl-phenyl)-[7-(3-methyl-pyridin-2-yl)-2-thiomorpholin-4-ylmethyl-quinazolin-4-yl]-amine], the Ki was under 1000 nM.
The figure for `Cc1cccnc1-c1ccc2c(Nc3ccc(C(C)C)cc3)nc(CN3CCCC(C)(C)C3)nc2c1` [Compound 714, [2-(3,3-Dimethyl-piperidin-1-ylmethyl)-7-(3-methyl-pyridin-2-yl)-quinazolin-4-yl]-(4-isopropyl-phenyl)-amine] is under 1000 nM.
Turning to `CCCN(CC)Cc1nc(Nc2ccc(C(C)C)cc2)c2ccc(-c3ncccc3C)cc2n1` [Compound 715, [2-[(Ethyl-propyl-amino)-methyl]-7-(3-methyl-pyridin-2-yl)-quinazolin-4-yl]-(4-isopropyl-phenyl)-amine], the Ki is under 1000 nM.
Take `CCCN(C)Cc1nc(Nc2ccc(C(C)C)cc2)c2ccc(-c3ncccc3C)cc2n1` [Compound 716, (4-Isopropyl-phenyl)-[2-[(methyl-propyl-amino)-methyl]-7-(3-methyl-pyridin-2-yl)-quinazolin-4-yl]-amine]: the Ki is under 1000 nM.
Then `CCN(Cc1nc(Nc2ccc(C(C)C)cc2)c2ccc(-c3ncccc3C)cc2n1)C(C)C` [Compound 717, [2-[(Ethyl-isopropyl-amino)-methyl]-7-(3-methyl-pyridin-2-yl)-quinazolin-4-yl]-(4-isopropyl-phenyl)-amine], with under 1000 nM.
For the compound `Cc1cccnc1-c1ccc2c(Nc3ccc(C(C)C)cc3)nc(CN(C)C(C)C)nc2c1` [Compound 718, [2-[(Isopropyl-methyl-amino)-methyl]-7-(3-methyl-pyridin-2-yl)-quinazolin-4-yl]-(4-isopropyl-phenyl)-amine], the Ki was under 1000 nM.
The figure for `COCCN(CCOC)Cc1nc(Nc2ccc(C(C)C)cc2)c2ccc(-c3ncccc3C)cc2n1` [Compound 719, [2-{[Bis-(2-methoxy-ethyl)-amino]-methyl}-7-(3-methyl-pyridin-2-yl)-quinazolin-4-yl]-(4-isopropyl-phenyl)-amine] is under 1000 nM; for `C[C@@H]1CN(Cc2nc(Nc3ccc(S(=O)(=O)N4CCOCC4)cc3)c3ncc(-c4ncccc4Cl)cc3n2)C[C@H](C)O1` [Compound 720, [7-(3-Chloro-pyridin-2-yl)-2-(2,6-dimethyl-morpholin-4-ylmethyl)-pyrido[3,2-d]pyrimidin-4-yl]-[4-(morpholine-4-sulfonyl)-phenyl]-amine (cis)] it is under 1000 nM.
For the compound `CN(C)Cc1nc(Nc2ccc(S(=O)(=O)N3CCOCC3)cc2)c2ccc(-c3ncccc3C(F)(F)F)cc2n1` [Compound 721, [2-Dimethylaminomethyl-7-(3-trifluoromethyl-pyridin-2-yl)-quinazolin-4-yl]-[4-(morpholine-4-sulfonyl)-phenyl]-amine], the Ki is under 1000 nM.

Values taken from US20040156869A1, “2-substituted quinazolin-4-ylamine analogues” (Neurogen Corporation, priority 2002, published 2004).
